The text below walks through data of ChEMBL document CHEMBL1909046, “DrugMatrix in vitro pharmacology data”.

Series [1] in a line: DRUGMATRIX: Glutamate, AMPA radioligand binding (ligand: [3H] AMPA). It is filed as cell membranes, Rattus norvegicus, Wistar, Cerebral cortex, Membrane. The following applies: Not Active = under 50% inhibition at 10 µM.
The nature of series [2]: DRUGMATRIX: Purinergic P2X radioligand binding (ligand: [3H] alpha, beta-Methylene-ATP). Format: cell membranes, Oryctolagus cuniculus, New Zealand albino, Urinary bladder, Membrane. Conditions: Not Active = under 50% inhibition at 10 µM.
Series [3] deals with Prostaglandin G/H synthase 1 (Homo sapiens, UniProt P23219). The series can be described thus: biochemical. Format: tissue-based, Platelet. Conditions: platelet.
Chain of Prostaglandin G/H synthase 1 (P23219 whole entry): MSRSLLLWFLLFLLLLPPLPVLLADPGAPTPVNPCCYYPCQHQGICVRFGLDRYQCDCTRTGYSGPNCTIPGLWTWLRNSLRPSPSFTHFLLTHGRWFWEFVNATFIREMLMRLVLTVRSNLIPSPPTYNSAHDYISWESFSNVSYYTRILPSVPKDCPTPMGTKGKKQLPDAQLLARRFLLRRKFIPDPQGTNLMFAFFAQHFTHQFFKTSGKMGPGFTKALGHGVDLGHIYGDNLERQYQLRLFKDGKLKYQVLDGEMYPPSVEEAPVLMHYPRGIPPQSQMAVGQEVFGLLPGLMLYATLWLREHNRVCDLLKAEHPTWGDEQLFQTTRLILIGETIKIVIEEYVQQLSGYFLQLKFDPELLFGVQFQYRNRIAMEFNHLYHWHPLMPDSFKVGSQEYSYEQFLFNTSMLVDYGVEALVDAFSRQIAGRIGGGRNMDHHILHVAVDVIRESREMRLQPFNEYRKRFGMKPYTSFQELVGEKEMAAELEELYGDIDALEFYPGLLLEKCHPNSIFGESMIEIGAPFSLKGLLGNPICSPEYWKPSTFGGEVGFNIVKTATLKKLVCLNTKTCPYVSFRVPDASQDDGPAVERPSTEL
Series [4] deals with T1, Alpha-2A adrenergic receptor (Homo sapiens, UniProt P08913).
T1 sequence (P08913 whole entry): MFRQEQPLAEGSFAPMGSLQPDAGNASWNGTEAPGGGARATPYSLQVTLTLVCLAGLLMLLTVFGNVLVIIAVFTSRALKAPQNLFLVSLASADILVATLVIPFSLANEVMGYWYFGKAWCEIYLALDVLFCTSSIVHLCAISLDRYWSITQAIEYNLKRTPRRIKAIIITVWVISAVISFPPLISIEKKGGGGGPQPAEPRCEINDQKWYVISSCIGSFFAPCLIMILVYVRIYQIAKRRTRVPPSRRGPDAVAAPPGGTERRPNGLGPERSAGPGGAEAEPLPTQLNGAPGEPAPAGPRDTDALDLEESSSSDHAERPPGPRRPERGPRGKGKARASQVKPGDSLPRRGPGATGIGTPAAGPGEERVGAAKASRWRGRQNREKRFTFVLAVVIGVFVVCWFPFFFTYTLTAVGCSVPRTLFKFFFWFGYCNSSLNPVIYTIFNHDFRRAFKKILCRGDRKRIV
Format: cell membranes, Sf9, Membrane.

Series [5] deals with T2, Muscarinic acetylcholine receptor M5 (Homo sapiens, UniProt P08912).
T2 sequence (P08912 whole entry): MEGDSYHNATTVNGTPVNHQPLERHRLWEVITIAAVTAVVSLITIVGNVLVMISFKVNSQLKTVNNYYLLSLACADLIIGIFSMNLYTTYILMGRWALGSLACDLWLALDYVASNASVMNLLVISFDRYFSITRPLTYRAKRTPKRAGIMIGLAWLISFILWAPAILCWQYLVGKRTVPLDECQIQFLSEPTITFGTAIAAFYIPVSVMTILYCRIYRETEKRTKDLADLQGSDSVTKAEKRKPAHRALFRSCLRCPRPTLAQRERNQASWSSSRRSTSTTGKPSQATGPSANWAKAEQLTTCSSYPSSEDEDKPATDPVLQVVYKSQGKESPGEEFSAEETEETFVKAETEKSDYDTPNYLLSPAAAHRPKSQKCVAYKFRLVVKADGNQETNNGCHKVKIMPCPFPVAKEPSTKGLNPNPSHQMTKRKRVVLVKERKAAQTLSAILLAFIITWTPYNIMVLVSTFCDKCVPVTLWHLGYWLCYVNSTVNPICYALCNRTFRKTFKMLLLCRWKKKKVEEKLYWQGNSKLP
Format: cell membranes, CHO-K1, Membrane.

Series [6] concerns the target Voltage-gated inwardly rectifying potassium channel KCNH2 (Homo sapiens, UniProt Q12809). The following applies: hek293. Also: in other assays of this panel Not Active means under 50% inhibition at 10 µM.

Chain of Voltage-gated inwardly rectifying potassium channel KCNH2 (Q12809 whole entry): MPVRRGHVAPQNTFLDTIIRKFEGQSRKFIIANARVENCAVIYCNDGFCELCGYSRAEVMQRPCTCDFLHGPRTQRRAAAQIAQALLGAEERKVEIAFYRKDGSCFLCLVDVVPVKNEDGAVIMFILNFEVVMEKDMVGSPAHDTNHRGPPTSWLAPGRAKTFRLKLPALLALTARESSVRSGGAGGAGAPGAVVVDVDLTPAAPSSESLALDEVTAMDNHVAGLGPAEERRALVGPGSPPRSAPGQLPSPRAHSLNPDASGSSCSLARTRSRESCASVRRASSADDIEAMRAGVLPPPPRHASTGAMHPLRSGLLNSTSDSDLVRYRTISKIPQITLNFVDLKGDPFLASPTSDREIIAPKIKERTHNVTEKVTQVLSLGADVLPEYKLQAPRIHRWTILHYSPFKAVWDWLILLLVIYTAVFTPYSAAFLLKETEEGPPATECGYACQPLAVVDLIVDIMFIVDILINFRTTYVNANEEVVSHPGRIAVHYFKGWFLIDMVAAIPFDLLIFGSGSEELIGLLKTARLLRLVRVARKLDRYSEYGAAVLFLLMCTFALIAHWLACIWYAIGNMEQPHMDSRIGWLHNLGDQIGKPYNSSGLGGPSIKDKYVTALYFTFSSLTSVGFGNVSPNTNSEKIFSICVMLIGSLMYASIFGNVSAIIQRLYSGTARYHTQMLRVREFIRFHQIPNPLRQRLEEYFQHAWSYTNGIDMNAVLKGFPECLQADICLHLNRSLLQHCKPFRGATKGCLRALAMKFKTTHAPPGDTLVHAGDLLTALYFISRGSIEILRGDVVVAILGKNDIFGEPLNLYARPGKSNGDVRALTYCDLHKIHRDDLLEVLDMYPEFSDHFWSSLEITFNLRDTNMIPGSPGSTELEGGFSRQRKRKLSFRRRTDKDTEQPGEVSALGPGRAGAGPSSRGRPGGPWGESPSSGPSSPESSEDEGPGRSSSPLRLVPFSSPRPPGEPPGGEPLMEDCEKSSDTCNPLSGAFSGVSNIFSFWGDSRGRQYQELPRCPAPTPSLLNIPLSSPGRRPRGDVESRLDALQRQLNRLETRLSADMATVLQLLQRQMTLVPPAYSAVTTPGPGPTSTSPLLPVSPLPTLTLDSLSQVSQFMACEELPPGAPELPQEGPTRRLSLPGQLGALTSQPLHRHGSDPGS

As for `Cc1ccccc1N1C(=O)c2cc(S(N)(=O)=O)c(Cl)cc2NC1C` (stereo not given) [METOLAZONE], the IC50 entry in series [1], in series [2], in series [3], in series [4] (sf9), in series [5] (cho-k1) and in series [6] was “Not Active” in each case. Besides, the Ki entry in series [1], in series [2] and in series [6] was “Not Active” in each case.

Regarding `COCCc1ccc(OCC(O)CNC(C)C)cc1` (stereo not given) [METOPROLOL], the IC50 entry in series [1], in series [2], in series [3], in series [4] (sf9), in series [5] (cho-k1) and in series [6] was “Not Active” each time. Besides, the Ki entry in series [1], in series [2] and in series [6] was “Not Active” in each case.

`CCn1cc(C(=O)O)c(=O)c2cc(F)c(N3CCNCC3)cc21` [NORFLOXACIN]: the IC50 result in series [1], in series [2], in series [3], in series [4] (sf9), in series [5] (cho-k1) and in series [6] was “Not Active” each time. For the same compound, the Ki result in series [1], in series [2] and in series [6] was “Not Active” throughout.

Regarding `NC1=NC(=O)C(c2ccccc2)O1` (stereo not given) [PEMOLINE], the IC50 result in series [1], in series [2], in series [3], in series [4] (sf9), in series [5] (cho-k1) and in series [6] was “Not Active” each time. The Ki result in series [1], in series [2] and in series [6] was “Not Active” in each case.

Consider `Nc1nc2c(ncn2CCC(CO)CO)c(=O)[nH]1` [PENCICLOVIR], for which the IC50 result in series [1], in series [2], in series [3], in series [4] (sf9), in series [5] (cho-k1) and in series [6] was “Not Active” in each case. For the same compound, the inhibitory constant (Ki) result in series [1], in series [2] and in series [6] was “Not Active” in each case.

On to `C=C(C)C1(O)OC(=O)C=C1OC` (stereo not given) [PENICILLIC ACID], for which the IC50 entry in series [1], in series [2], in series [3], in series [4] (sf9), in series [5] (cho-k1) and in series [6] was “Not Active” each time. Besides, the Ki entry in series [1], in series [2] and in series [6] was “Not Active” throughout.

For the compound `CC1(C)S[C@@H]2[C@H](NC(=O)Cc3ccccc3)C(=O)N2[C@H]1C(=O)O` [PENICILLIN G], the IC50 entry in series [1], in series [2], in series [3], in series [4] (sf9), in series [5] (cho-k1) and in series [6] was “Not Active” in each case. Also, the Ki result in series [1], in series [2] and in series [6] was “Not Active” each time.

Regarding `C1CCC(C(CC2CCCCN2)C2CCCCC2)CC1` (stereo not given) [PERHEXILINE], the IC50 result was “Not Active” in series [1]; “Not Active” in series [2]; “Not Active” in series [3]; “Not Active” in series [4] (sf9); 1090 nM in series [5] (read-out: IC50); “Not Active” in series [6]. Besides, the Ki entry was “Not Active” in series [1], “Not Active” in series [2], 785 nM in series [5] (read-out: Ki) and “Not Active” in series [6].

As for `CCOc1ccc(NC(C)=O)cc1` [PHENACETIN], the IC50 result in series [1], in series [2], in series [3], in series [4] (sf9), in series [5] (cho-k1) and in series [6] was “Not Active” throughout. Moreover, the Ki result in series [1], in series [2] and in series [6] was “Not Active” throughout.

With `CNNCc1ccc(C(=O)NC(C)C)cc1` [PROCARBAZINE], the concentration for half-maximal inhibition (IC50) entry in series [1], in series [2], in series [3], in series [4] (sf9), in series [5] (cho-k1) and in series [6] was “Not Active” each time. For the same compound, the Ki result in series [1], in series [2] and in series [6] was “Not Active” each time.

`CN(C)CCCN1c2ccccc2Sc2ccccc21` [PROMAZINE]: the IC50 result is “Not Active” in series [1]; “Not Active” in series [2]; “Not Active” in series [3]; 337 nM in series [4] (read-out: IC50); 64 nM in series [5] (read-out: IC50); “Not Active” in series [6]. Further, the Ki entry was “Not Active” in series [1]; “Not Active” in series [2]; 126 nM in series [4] (read-out: Ki); 46 nM in series [5] (read-out: Ki); “Not Active” in series [6].

As for `CC(O)CO` (stereo not given) [PROPYLENE GLYCOL], the IC50 result in series [1], in series [2], in series [3], in series [4] (sf9), in series [5] (cho-k1) and in series [6] was “Not Active” each time. In addition, the Ki result in series [1], in series [2] and in series [6] was “Not Active” each time.

CADMIUM ACETATE: the IC50 result in series [1] is “Not Active”; in series [2], “Not Active”; in series [3], “Not Active”; in series [4] (sf9, read-out: IC50), 4560 nM; in series [5] (cho-k1), “Not Active”; in series [6], “Not Active”. Besides, the Ki result in series [1], in series [2], in series [3], in series [5] (cho-k1) and in series [6] was “Not Active” in each case.

LEAD (II) ACETATE: the IC50 entry is “Not Active” in series [1]; “Not Active” in series [2]; “Not Active” in series [3]; 3600 nM in series [4] (sf9, read-out: IC50); “Not Active” in series [5] (cho-k1); “Not Active” in series [6]. The inhibitory constant (Ki) entry in series [1], in series [2], in series [3], in series [5] (cho-k1) and in series [6] was “Not Active” each time.

With LIPOPOLYSACCHARIDE E. COLI O55:B5, the IC50 result in series [1], in series [2], in series [3], in series [4] (sf9), in series [5] (cho-k1) and in series [6] was “Not Active” each time. For the same compound, the Ki result in series [1], in series [2], in series [3], in series [4] (sf9), in series [5] (cho-k1) and in series [6] was “Not Active” in each case.
